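Compound exposure: 48 hours, 5 concentrations, 96-well plates. GI50 is the concentration that inhibits growth by half.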 Calls of active or inactive are those of the source. Cut-off read from the data, not from the text of the source: active = GI50 up to about 1.1 µM and inactive = higher.
Tests used:
Assay in all cases: NCI anticancer screen, dose series, 48 h
[1] = system: 786-0
[2] = system: A498
[3] = system: ACHN
[4] = system: COLO 205
[5] = system: HCC 2998
[6] = system: HT-29
[7] = system: Hs-578T
[8] = system: IGROV-1
[9] = system: K562
[10] = system: KM12
[11] = system: MDA-MB-231
[12] = system: MOLT-4
[13] = system: Malme-3M
[14] = system: OVCAR-4
[15] = system: OVCAR-8
[16] = system: SF-539
[17] = system: SK-MEL-2
[18] = system: SNB-75
[19] = system: UACC-257

Measured: GI50

N/C(=N\O)NCCN1CCCCCCC1
inactive: [1] > 100 µM | [2] > 100 µM | [3] 20.1 µM | [4] > 100 µM | [5] > 100 µM | [6] > 100 µM | [7] > 100 µM | [8] 26.7 µM | [9] > 100 µM | [10] > 100 µM | [11] > 100 µM | [12] > 100 µM | [13] > 100 µM | [14] > 100 µM | [15] 42 µM | [16] > 100 µM | [17] > 100 µM | [18] > 100 µM | [19] > 100 µM

COc1cc2cc(C(=O)N3CC(CCl)c4ccccc43)[nH]c2c(OC)c1OC (stereo not given)
inactive: [1] 97.5 µM | [2] 18.2 µM | [3] > 77.3 µM | [4] 33.8 µM | [5] 17.2 µM | [6] 26.8 µM | [7] > 100 µM | [8] > 100 µM | [9] 3.1 µM | [10] 23.5 µM | [11] > 100 µM | [12] 13.4 µM | [13] 36.5 µM | [14] > 94.4 µM | [15] 81.8 µM | [16] > 100 µM | [17] 62.5 µM | [18] > 92.5 µM | [19] 99.3 µM

CC(C)=CCc1c(OC(=O)c2c(C)cc(O)cc2O)cc(CO)c(CO)c1O
inactive: [1] 31.4 µM | [2] 17.3 µM | [3] 14.4 µM | [4] 17.9 µM | [5] 16.4 µM | [6] 21.2 µM | [7] 20.1 µM | [8] 19.2 µM | [9] 7.62 µM | [10] 16.2 µM | [11] 15.5 µM | [12] 16.3 µM | [13] 17.5 µM | [14] 16 µM | [15] 25 µM | [16] 18.6 µM | [17] 21.3 µM | [18] 12.6 µM | [19] 29.9 µM

CCOC(=O)C1C(=O)CC(C)(O)C(C(=O)OCC)C1c1ccc(OC)cc1 (stereo not given)
inactive: [1] > 100 µM | [2] > 100 µM | [3] > 100 µM | [4] > 100 µM | [5] > 100 µM | [6] > 100 µM | [7] > 100 µM | [8] > 100 µM | [9] > 100 µM | [10] > 100 µM | [11] > 100 µM | [12] > 100 µM | [13] > 100 µM | [14] > 100 µM | [15] > 100 µM | [16] > 100 µM | [17] > 100 µM | [18] > 100 µM | [19] > 100 µM

CC(C)(C)[Si](C)(C)OC1CCOC1(O)c1ccccn1 (stereo not given)
inactive: [1] > 100 µM | [2] > 100 µM | [3] > 100 µM | [4] > 100 µM | [5] > 100 µM | [6] > 100 µM | [7] > 100 µM | [8] > 100 µM | [9] 57.9 µM | [10] > 100 µM | [11] > 100 µM | [12] 57.3 µM | [13] > 100 µM | [14] > 100 µM | [15] > 100 µM | [16] > 100 µM | [17] > 100 µM | [18] > 100 µM | [19] > 100 µM

CC(C)(C)C1(COC(=O)c2ccc(N)cc2)COC1
inactive: [1] 73.3 µM | [2] 87.3 µM | [3] 78.7 µM | [4] > 100 µM | [5] 57.5 µM | [6] 50.1 µM | [7] > 100 µM | [8] > 100 µM | [9] 46.3 µM | [10] 58.5 µM | [11] 52.1 µM | [12] 30.5 µM | [13] 89.7 µM | [14] 32.7 µM | [15] 58.3 µM | [16] 32.4 µM | [17] > 100 µM | [18] 76.6 µM | [19] 43.5 µM

CCCCC(=O)c1c(O)ccc2c(C)cc(=O)oc12
inactive: [1] > 100 µM | [2] 97.7 µM | [3] 96.6 µM | [4] > 100 µM | [5] 45.8 µM | [6] > 100 µM | [7] 29 µM | [8] 95.5 µM | [9] > 100 µM | [10] > 100 µM | [11] 67.8 µM | [12] 77.1 µM | [13] 39.9 µM | [14] 69.8 µM | [15] > 100 µM | [16] > 100 µM | [17] 3.14 µM | [18] > 100 µM | [19] > 100 µM

Cc1cccc2c1NC(=O)/C2=N\Nc1ccccc1[N+](=O)[O-]
inactive: [1] 4.27 µM | [2] 19.3 µM | [3] 2.97 µM | [4] 30.4 µM | [5] 7.11 µM | [6] 4.35 µM | [7] 4.85 µM | [8] 2.37 µM | [9] 17.5 µM | [10] 6.93 µM | [11] 2.58 µM | [12] 21.2 µM | [13] 9.64 µM | [14] 4.05 µM | [15] 3.85 µM | [16] 2.12 µM | [17] 16.7 µM | [18] 11.1 µM | [19] 13.8 µM

C[C@]12CC[C@@H]3c4cc(OCC(F)(F)F)c(O)cc4C(=O)C[C@H]3[C@@H]1CC[C@@H]2O
inactive: [1] 10.8 µM | [2] 7.93 µM | [3] 20.7 µM | [4] 26.6 µM | [5] 6.11 µM | [6] 12.9 µM | [7] 4.92 µM | [8] 13.6 µM | [9] 2.26 µM | [10] 10.6 µM | [11] 12.9 µM | [12] 3.5 µM | [13] 3.63 µM | [14] 27.2 µM | [15] 23.1 µM | [16] 5.09 µM | [17] 11.4 µM | [18] 5.36 µM | [19] 12.2 µM

Cc1cc(NC2=CC(=O)C(=O)c3ccccc32)no1
inactive: [1] 15.1 µM | [2] 18.7 µM | [3] 11.7 µM | [4] 16.1 µM | [5] 20.7 µM | [6] 13 µM | [7] 9.4 µM | [8] 8.28 µM | [9] 3.89 µM | [10] 12.6 µM | [11] 2.83 µM | [12] 8.57 µM | [13] 2.49 µM | [14] 8.22 µM | [15] 6.81 µM | [16] 6.4 µM | [17] 4.75 µM | [18] 9.44 µM | [19] 6.92 µM

— ChEMBL document CHEMBL1201862, “PubChem BioAssay data set” (2004)
